Source: ChEMBL document CHEMBL1201862, “PubChem BioAssay data set” (2004)
Calls of active or inactive are those of the source.

What was measured:
[1] = inhibitors of firefly luciferase expression or activity, dose response, H4 neuroglioma cells, luminescence (AID 1990); assay type: functional, cell-based
[2] = Luminescence Cell-Based Dose Response HTS to Identify Inhibitors of 5'UTR Stem-Loop Driven Prion Protein mRNA Translation in H4 Neuroglioblastoma Cells. [Related pubchem assays: 1827 (Project Summary), 1813 (Primary HTS)]; assay type: functional
[3] = inhibitors of SNCA 5'UTR-driven reporter translation, confirmation, H4 neuroglioma cells, luminescence (AID 1988); assay type: functional, cell-based
A-375 [4] = assay: MITF: Counter assay: A375 proliferation Measured in Cell-Based System Using Plate Reader - 2084-03_Inhibitor_Dose_DryPowder_Activity. [Related pubchem assays (depositor defined):AID488944]; assay type: functional; conditions: Homo sapiens
[5] = molecular target: Luciferin 4-monooxygenase (Photinus pyralis, UniProt P08659); assay: firefly luciferase enzyme inhibitors, dose response, biochemical, luminescence (AID 1891)
Chain of Luciferin 4-monooxygenase (P08659 whole entry): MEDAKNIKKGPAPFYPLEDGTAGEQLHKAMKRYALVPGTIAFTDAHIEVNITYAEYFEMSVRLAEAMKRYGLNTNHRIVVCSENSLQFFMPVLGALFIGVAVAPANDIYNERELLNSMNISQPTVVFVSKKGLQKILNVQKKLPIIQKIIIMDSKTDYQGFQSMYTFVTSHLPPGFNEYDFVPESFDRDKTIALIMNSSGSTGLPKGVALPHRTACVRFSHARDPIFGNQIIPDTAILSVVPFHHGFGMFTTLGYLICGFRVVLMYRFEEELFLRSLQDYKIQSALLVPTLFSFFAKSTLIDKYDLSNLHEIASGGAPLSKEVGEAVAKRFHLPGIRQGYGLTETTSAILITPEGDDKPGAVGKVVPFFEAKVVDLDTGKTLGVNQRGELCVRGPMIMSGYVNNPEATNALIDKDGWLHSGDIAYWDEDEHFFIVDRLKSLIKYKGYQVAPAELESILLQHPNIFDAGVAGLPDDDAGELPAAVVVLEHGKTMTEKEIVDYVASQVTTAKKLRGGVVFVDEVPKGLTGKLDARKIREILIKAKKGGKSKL

[6] = Luminescence Cell-Based Dose Confirmation HTS to Identify Inhibitors of Platelet Dense Granule Release. [Related pubchem assays: 1663 (Primary HTS), 1678 (Summary of Project)]; assay type: functional
Jurkat = assay: antigen receptor-induced NF-kB inhibitors, dose response, Jurkat, luciferase reporter, luminescence, B- and T-cell (AID 489004); assay type: functional, cell-based; conditions: Homo sapiens;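 also: NF-kB luciferase reporter Jurkat cells stimulated with PMA plus ionomycin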
[7] = cytotoxicity in HEK-293T NF-kB-Luc cells, dose response, cytotoxicity control for B/T-cell NF-kB inhibitor project, cell-based, uHTS hits (AID 489019); assay type: functional;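 also: IC50 reflects cytotoxicity as loss of cell viability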
[8] = Shn3 3'UTR reporter inhibitors, dose response, cell-based, Clone20 osteoblasts, firefly luciferase, cherry-picked (AID 624132); assay type: functional;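 also: firefly luciferase luminescence from reporter carrying the Shn3 3'UTR in osteoblasts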
[9] = HepG2 cell cytotoxicity, dose response, cytotoxicity control for Shn3 inhibitor project, CellTiter-Glo, cherry-picked (AID 624134); assay type: functional, cell-based
Paired box protein Pax-8 = Paired box protein Pax-8 (Homo sapiens, UniProt Q06710); assay: inhibitors of PAX8-driven TPO luciferase reporter, dose response, RMG-I cells, cherry-pick (AID 687027); assay type: functional, cell-based;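 also: luciferase reporter driven by Pax8 target thyroperoxidase promoter measured by SteadyGlo luminescence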
Chain of Paired box protein Pax-8 (Q06710 whole entry): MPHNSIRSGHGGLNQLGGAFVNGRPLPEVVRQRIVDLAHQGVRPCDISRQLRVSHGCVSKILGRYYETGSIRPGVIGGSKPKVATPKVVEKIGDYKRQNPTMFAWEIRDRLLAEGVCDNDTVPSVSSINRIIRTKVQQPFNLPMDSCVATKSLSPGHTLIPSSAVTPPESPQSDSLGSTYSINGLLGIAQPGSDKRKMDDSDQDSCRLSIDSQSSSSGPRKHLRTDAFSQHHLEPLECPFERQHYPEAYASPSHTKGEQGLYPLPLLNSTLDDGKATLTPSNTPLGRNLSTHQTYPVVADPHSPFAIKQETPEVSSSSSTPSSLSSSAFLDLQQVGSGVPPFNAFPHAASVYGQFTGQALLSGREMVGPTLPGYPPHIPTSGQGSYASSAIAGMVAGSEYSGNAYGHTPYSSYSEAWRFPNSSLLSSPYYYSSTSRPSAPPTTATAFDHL

[10] = A549 cell cytotoxicity, dose response, cytotoxicity control, plate reader, cherry-pick, antagonist series (AID 743412); assay type: functional, cell-based
[11] = HepG2 cell cytotoxicity, dose response, cytotoxicity control, plate reader, cherry-pick, antagonist series (AID 743416); assay type: functional, cell-based
[12] = LGR2 antagonists, dose response, cell-based, HEK293, CRE-luciferase reporter, cherry pick, set 2 (AID 743343); assay type: functional;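 also: transfected cells were stimulated with diluted bursicon conditioned medium after compound addition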
[13] = non-specific cell cytotoxicity, dose response, cytotoxicity control for PAX8 inhibitor project, plate reader, dry powder samples (AID 743021); assay type: functional, cell-based
[14] = MC4R antagonists, dose response, counter-screen for LGR2 antagonist project, cell-based, plate reader, cherry pick (AID 743444); assay type: functional;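 also: transfected HEK 293 cells stimulated with alpha-MSH peptide; potency of inhibitors of the alpha-MSH evoked signal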
[15] = HEK293 cell cytotoxicity, dose response, cytotoxicity control, plate reader, cherry-picked samples (AID 743446); assay type: functional, cell-based
[16] = growth induction of Burl-1 ts yeast mutant, dose response, counter-screen for SUMOylation pathway inhibitor project, whole organism, S. cerevisiae, luminescence (AID 463199); assay type: functional
[17] = molecular target: Beta-2 adrenergic receptor (Homo sapiens, UniProt P07550); assay: beta2AR agonists driving receptor internalization, dose response, cell-based, FAP fluorogen, flow cytometry, cherry pick 1 (AID 588763); assay type: functional
Chain of Beta-2 adrenergic receptor (P07550 whole entry): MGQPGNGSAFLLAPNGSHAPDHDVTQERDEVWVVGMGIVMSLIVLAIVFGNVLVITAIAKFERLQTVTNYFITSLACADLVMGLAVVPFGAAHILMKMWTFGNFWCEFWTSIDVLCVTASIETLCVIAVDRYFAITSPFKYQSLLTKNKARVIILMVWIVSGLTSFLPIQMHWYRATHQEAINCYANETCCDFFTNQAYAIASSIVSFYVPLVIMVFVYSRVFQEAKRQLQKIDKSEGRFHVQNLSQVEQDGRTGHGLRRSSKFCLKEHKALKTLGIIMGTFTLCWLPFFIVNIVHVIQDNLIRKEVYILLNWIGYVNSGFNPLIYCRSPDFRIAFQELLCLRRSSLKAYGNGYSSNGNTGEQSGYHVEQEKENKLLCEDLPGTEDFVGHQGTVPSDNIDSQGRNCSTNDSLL

HEK293 = assay: cells; assay type: functional, cell-based; conditions: Homo sapiens
[18] = molecular target: T1, Nuclear receptor subfamily 0 group B member 1 (Homo sapiens, UniProt P51843); assay: Luminescence-based cell-based high throughput dose response assay for inhibitors of the orphan nuclear receptor subfamily 0, group B, member 1 (DAX1; NR0B1). [Related pubchem assays (depositor defined):AID504766, AID504790]; assay type: functional
T1 sequence (P51843 whole entry): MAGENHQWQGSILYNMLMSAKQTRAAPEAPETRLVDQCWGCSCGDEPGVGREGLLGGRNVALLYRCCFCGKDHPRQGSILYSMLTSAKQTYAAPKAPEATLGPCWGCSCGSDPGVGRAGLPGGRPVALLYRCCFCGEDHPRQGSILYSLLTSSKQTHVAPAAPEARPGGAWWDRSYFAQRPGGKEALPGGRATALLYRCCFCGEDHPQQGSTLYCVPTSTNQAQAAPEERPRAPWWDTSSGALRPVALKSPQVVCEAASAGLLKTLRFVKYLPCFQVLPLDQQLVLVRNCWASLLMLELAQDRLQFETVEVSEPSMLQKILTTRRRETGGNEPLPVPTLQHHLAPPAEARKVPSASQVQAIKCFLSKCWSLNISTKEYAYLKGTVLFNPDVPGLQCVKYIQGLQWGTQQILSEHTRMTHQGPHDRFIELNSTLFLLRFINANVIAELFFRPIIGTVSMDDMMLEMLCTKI

[19] = NIH-3T3 fibroblast cytotoxicity, dose response, cytotoxicity control, cell-based, fluorescence, Alamar Blue, secondary assay (AID 2327); assay type: functional;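 also: NIH-3T3 mouse fibroblasts cultured with fluconazole at 8 µg/mL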
[20] = C. albicans growth with fluconazole, confirmation, fluorescence, retest (AID 2467); assay type: functional, cell-based
[21] = molecular target: G-protein coupled receptor 55 (Homo sapiens, UniProt Q9Y2T6); assay: GPR55 agonists via beta-arrestin recruitment, primary screen, imaging, U2OS cells, beta-arrestin-GFP redistribution (AID 1961); assay type: functional
Chain of G-protein coupled receptor 55 (Q9Y2T6 whole entry): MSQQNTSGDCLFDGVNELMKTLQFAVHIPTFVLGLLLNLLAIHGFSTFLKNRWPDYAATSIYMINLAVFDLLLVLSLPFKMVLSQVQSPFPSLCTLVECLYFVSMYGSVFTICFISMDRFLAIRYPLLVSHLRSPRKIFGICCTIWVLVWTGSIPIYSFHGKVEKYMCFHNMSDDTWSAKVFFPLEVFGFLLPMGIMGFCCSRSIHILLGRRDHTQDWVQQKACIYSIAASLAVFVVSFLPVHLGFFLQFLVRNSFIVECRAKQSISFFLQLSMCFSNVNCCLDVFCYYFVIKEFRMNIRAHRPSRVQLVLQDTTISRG

[22] = molecular target: T2, Microphthalmia-associated transcription factor (Homo sapiens, UniProt O75030); assay: TRPM1 promoter luciferase signal decrease, dose response, MITF inhibitor project, cell-based, SK-MEL-5, cherry-picked, set 3 (AID 493073); assay type: functional
T2 sequence (O75030 whole entry): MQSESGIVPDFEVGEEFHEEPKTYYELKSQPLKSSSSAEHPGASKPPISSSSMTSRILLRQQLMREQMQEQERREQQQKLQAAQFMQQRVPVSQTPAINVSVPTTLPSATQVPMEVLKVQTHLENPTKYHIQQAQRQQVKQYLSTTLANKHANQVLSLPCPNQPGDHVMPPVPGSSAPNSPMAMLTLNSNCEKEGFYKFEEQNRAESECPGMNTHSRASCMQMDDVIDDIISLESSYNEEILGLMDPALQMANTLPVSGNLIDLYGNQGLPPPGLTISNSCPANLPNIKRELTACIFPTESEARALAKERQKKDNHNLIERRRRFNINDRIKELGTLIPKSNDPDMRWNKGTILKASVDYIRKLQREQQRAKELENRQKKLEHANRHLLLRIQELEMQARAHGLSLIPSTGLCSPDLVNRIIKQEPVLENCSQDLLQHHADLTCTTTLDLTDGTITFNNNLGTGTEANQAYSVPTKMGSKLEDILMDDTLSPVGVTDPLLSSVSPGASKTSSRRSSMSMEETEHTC

INS1 = assay: beta cell apoptosis inhibitors, cytokine rescue, dose response, luminescence, retest (AID 449756); assay type: functional, cell-based; conditions: Rattus norvegicus;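 also: cell death triggered by IL-1 beta plus TNF-alpha plus IFN-gamma mixture; protective hits raise ATP signal compared with cytokine alone wells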
Vero = assay: cells; assay type: functional; conditions: Chlorocebus sabaeus
A-375 [23] = assay: A375 melanoma cell viability reduction, dose response, counter-screen for MITF modulator project, cherry-pick samples, set 2 (AID 540335); assay type: functional, cell-based; conditions: Homo sapiens
[24] = inhibitors of HIV Env-driven cell fusion, dose response, cherry-pick (AID 652057); assay type: functional, cell-based
[25] = CEM21 lymphoblast cell cytotoxicity, dose response, cytotoxicity control for viral fusion inhibitor project, CellTiter-Glo luminescence, cherry-picked (AID 652042); assay type: functional, cell-based;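 also: potency for signal decrease meaning cytotoxicity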
[26] = ZM109 Env clade C HIV-1 fusion inhibitors, dose response, HeLa effector, CEM target cells, luciferase, cherry-pick (AID 652058); assay type: functional, cell-based
[27] = inhibitors of clade B AD8 Env fusion, dose response, cell-based, cherry-pick (AID 652062); assay type: functional;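 also: luciferase signal from cell-cell fusion driven by HIV-1 clade B AD8 Env; potency is for inhibitors of fusion seen as a drop in luminescence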
[28] = microbe, parasite or virus in culture; assay type: functional; conditions: Mycobacterium tuberculosis
[29] = molecular target: Serine/threonine-protein phosphatase (Candida dubliniensis (strain CD36 / CBS 7987 / NCPF 3949 / NRRLY-17841) (Yeast), UniProt B9W6M3); assay: calcineurin pathway inhibitors in yeast reporter, dose response, S. cerevisiae, CDRE-lacZ, luminescence, secondary (AID 2388); assay type: functional, cell-based;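 also: yeast reporter cells carrying a calcineurin-responsive lacZ construct stimulated with calcium chloride; luminescent beta-galactosidase reporter signal in whole cells rather than isolated phosphatase activity; potency for inhibition where a drop in reporter signal means calcineurin blockade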
Chain of Serine/threonine-protein phosphatase (B9W6M3 whole entry): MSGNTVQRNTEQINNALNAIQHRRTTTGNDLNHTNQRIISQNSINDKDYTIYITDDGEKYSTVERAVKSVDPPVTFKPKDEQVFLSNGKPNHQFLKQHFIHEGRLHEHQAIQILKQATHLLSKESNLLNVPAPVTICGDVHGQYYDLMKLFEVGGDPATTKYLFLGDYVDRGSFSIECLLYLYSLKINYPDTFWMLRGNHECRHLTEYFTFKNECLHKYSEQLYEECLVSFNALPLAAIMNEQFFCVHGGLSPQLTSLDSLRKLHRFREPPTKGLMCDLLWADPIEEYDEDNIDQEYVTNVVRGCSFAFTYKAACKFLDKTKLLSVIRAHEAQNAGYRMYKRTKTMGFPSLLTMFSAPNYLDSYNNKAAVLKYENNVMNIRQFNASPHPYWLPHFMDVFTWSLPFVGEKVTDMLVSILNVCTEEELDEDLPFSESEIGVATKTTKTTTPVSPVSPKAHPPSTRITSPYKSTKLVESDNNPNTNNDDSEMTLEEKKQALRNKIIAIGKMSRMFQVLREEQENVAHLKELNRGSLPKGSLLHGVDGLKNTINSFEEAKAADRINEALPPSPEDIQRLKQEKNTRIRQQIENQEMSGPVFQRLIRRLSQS

[30] = molecular target: ATP-dependent molecular chaperone HSP82 (Candida albicans (strain WO-1) (Yeast), UniProt C4YTQ8); assay: loss of DOC-induced GRE-beta-galactosidase reporter signal, dose response, Hsp90 inhibitor project, S. cerevisiae, luminescence (AID 2400); assay type: functional, cell-based;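 also: beta-galactosidase luminescence from glucocorticoid response element reporter as proxy for Hsp90 function; inhibitor potency where signal loss means Hsp90 inhibition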
Chain of ATP-dependent molecular chaperone HSP82 (C4YTQ8 whole entry): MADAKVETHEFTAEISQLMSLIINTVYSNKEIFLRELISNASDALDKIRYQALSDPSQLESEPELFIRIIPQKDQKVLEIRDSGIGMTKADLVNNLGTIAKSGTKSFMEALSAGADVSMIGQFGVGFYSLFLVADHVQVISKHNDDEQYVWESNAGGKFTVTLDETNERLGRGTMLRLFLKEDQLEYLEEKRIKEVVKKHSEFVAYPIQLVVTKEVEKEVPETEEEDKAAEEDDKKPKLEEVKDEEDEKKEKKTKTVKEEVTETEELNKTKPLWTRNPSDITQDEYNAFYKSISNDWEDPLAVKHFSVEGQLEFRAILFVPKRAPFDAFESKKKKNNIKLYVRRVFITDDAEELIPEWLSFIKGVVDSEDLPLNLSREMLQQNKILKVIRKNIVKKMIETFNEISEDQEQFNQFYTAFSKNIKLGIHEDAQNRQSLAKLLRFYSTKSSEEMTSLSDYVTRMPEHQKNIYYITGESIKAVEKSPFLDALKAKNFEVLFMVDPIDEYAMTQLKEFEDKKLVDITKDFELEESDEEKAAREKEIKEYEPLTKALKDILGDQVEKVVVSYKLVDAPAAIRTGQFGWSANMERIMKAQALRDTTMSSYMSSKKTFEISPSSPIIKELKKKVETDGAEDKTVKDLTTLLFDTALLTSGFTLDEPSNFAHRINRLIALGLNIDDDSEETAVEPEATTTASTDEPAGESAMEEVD

CC1CC2(C)Oc3ccccc3CC2C(C)C1CNCCCN(C)C (stereo not drawn)
EC50 [1]: > 120 µM (not active) | EC50 [2]: > 120 µM (not active) | EC50 [3]: > 120 µM (not active) | AC50 (A-375 [4]): 29.8 µM (active)

COCCn1c(C)cc(C2=NN=C(NC3CC3)SC2)c1C
EC50 [5]: 7.61 µM (active) | EC50 [6]: 2.14 µM (active) | IC50 (Jurkat): 0.22 µM (active) | IC50 [7]: > 80 µM (inactive) | AC50 [8]: < 0.26 µM (active) | AC50 [9]: 46.1 µM (active) | AC50 (Paired box protein Pax-8): < 0.26 µM (active) | AC50 [10]: 22.4 µM (active) | AC50 [11]: 26.7 µM (active) | AC50 [12]: 0.215 µM (active) | AC50 [13]: 12.1 µM (active) | AC50 [14]: 0.282 µM (active) | AC50 [15]: 29.2 µM (active)

O=C(CSc1nnc(CNC(=O)c2ccco2)o1)Nc1nc2ccccc2s1
AC50 [16]: 54 µM (active)

CCn1c(COc2ccc(Cl)cc2)nnc1SCc1ccc(C#N)cc1
EC50 [17]: 2.11 µM (active)

CCCCNc1cc(=O)n(C)c(=O)[nH]1
IC50 (HEK293): > 67.5 µM (inactive) | IC50 [18]: > 67.5 µM (inactive)

Cc1ccc(OCc2cc(C(=O)NCc3cnn(-c4cccc(F)c4)c3)no2)cn1
EC50 [19]: > 160 µM (inactive) | EC50 [20]: 0.964 µM (active) | EC50 [17]: 0.195 µM (active)

CC1CCC(C(C)C)C(OC(=O)Cn2c(-c3ccc(Cl)cc3)[n+](C)c3ccccc32)C1 (stereo not drawn)
EC50 [21]: > 32 µM (inactive) | AC50 [22]: 6.29 µM (active) | AC50 (INS1): 3.42 µM (active) | CC50 (Vero): > 25 µM (active) | AC50 (A-375 [23]): 26.3 µM (active) | AC50 [24]: 15.7 µM (active) | AC50 [25]: 9.28 µM (active) | AC50 [26]: 11.7 µM (active) | AC50 [27]: 10.8 µM (active)

CCc1ccc(C2c3[nH]c4ccccc4c3CCN2C(=O)c2ccc(=O)n(C)n2)cc1 (stereo not drawn)
EC50 [19]: > 160 µM (inconclusive) | EC50 [20]: 0.223 µM (active) | CC50 [28]: > 40 µM (active) | EC50 [29]: > 180 µM (inactive) | EC50 [30]: > 160 µM (inactive)
